Earlier results on five compounds are cited in patent US6469022B1, “Method, compositions and kits for increasing the oral bioavailability of pharmaceutical agents” (Smith Kline Beecham, Corporation, priority 1997, dated 2002).

“Also recorded” adds a separate entry of the source.

In data set [1] the target is P-glycoprotein (Homo sapiens, UniProt P08183).
The conditions of data set [2]: in vivo.
For data set [3] the following is noted: WO97/15269, Broder et al.
The conditions of data set [4]: oral administration.
The test system of data set [5] is tumour. The settings on record: up to 160 mg/kg/day, Stuffness et al.
The test system of data set [6] is tubulin.
Data set [7] concerns protein isoprenylation.
Data set [8] concerns metastatic breast cancer. Particulars: taxane-failure patients with metastatic breast cancer; continuous 96-hour infusion every three weeks.

P-glycoprotein, sequence (P08183 whole entry): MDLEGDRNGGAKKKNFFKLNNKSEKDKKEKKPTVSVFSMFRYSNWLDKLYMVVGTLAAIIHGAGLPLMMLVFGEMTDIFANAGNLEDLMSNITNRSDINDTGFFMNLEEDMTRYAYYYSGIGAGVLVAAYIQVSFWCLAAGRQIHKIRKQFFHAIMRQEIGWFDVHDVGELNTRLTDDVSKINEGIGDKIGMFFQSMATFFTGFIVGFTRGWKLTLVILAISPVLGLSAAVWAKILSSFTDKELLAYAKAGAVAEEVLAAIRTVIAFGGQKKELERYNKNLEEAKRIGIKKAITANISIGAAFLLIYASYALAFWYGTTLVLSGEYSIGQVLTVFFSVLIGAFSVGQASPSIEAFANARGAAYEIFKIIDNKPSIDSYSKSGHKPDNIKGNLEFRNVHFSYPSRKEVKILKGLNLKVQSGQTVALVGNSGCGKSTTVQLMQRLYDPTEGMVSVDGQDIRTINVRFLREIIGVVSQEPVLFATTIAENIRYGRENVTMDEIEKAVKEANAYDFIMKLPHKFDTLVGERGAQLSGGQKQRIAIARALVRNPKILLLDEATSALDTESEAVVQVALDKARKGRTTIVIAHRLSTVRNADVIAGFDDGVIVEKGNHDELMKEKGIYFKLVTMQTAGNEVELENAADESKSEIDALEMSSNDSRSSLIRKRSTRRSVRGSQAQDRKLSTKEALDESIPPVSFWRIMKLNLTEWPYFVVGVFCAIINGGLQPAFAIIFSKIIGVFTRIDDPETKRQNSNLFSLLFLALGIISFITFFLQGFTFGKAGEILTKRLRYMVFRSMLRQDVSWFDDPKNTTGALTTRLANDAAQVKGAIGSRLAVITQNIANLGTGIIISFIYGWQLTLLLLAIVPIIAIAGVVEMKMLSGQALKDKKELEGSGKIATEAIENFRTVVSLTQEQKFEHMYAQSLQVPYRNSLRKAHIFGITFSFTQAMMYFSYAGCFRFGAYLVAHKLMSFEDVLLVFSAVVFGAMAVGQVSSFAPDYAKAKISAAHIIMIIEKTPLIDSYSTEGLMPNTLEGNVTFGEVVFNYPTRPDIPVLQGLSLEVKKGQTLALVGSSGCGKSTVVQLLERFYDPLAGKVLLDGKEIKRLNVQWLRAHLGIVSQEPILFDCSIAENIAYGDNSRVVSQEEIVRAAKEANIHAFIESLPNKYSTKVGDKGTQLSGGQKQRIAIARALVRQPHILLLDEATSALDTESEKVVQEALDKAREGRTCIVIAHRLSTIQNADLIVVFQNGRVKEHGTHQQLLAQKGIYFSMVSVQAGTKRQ

In the case of `COc1cc2c(cc1OC)CN(CCc1ccc(NC(=O)c3cccc4c(=O)c5cccc(OC)c5[nH]c34)cc1)CC2` [GF120918, 9,10-dihydro-5-methoxy-9oxo-N-[4-[2-(1,2,3,4-tetrahydro-6,7,-dimethoxy-2-isoquinolinyl)ethyl]phenyl]-4-acridinecarboxamide], the P-glycoprotein inhibition result in data set [1] was “P-glycoprotein inhibitor”. Also, in data set [2], the “bioavailability across the gut” value is given as “very poor bioavailability”.

As for `OCCN(CCO)c1nc(N2CCCCC2)c2nc(N(CCO)CCO)nc(N3CCCCC3)c2n1` [dipyridamole], in data set [3], the oral bioavailability-enhancing activity entry was “less enhancing activity”.

`CC(=O)N1CCN(c2ccc(OCC3COC(Cn4ccnc4)(c4ccc(Cl)cc4Cl)O3)cc2)CC1` (stereo not shown) [ketoconazole]: in data set [3], the oral bioavailability-enhancing activity entry is recorded as “significant”.

For `CC(=O)O[C@H]1C(=O)[C@@]2(C)[C@H]([C@H](OC(=O)c3ccccc3)[C@]3(O)C[C@H](OC(=O)[C@H](O)[C@@H](NC(=O)c4ccccc4)c4ccccc4)C(C)=C1C3(C)C)[C@]1(OC(C)=O)CO[C@@H]1C[C@@H]2O` [paclitaxel, 5β,20-epoxy-1,2α,4,7β,10β,13α-hexa-hydroxytax-11-en-9-one 4,10-diacetate 2-benzoate 13-ester with (2R,3S)-N-benzoyl-3-phenylisoserine], the “absorbed when administered orally” value in data set [4] was “less than 1%”. The “antitumour activity on oral administration” value in data set [5] is recorded as “no evidence of antitumour activity”. In addition, the “level at which inhibition of tubulin disassembly occurs” value in data set [6] is given as “about 0.1 μM; also recorded: about 85 ng/ml”. Besides, in data set [7], the “level at which inhibition of protein isoprenylation occurs” value is listed as “about 0.03 μM; also recorded: about 25 ng/ml”. The response rate in data set [8] is given as 27%.

Regarding `CC(=O)[C@H]1CC[C@H]2[C@@H]3CCC4=CC(=O)CC[C@]4(C)[C@H]3CC[C@]12C` [progesterone], the oral bioavailability-enhancing activity result in data set [3] is “none”.
